Results reported in patent US20250188069A1, “COMPOUNDS AND METHODS FOR DEGRADING CASEIN KINASE 1 ALPHA” (PIN THERAPEUTICS, INC., priority 2022, published 2025).
pIC50: −log10 of the molar value. Counter-ions that a name gives are not always drawn. Like-named read-outs stand apart in the source and are kept apart here.

Legend:
Type in all cases: cell-based
CK1α [1] = molecular target: T1, CK1α (Homo sapiens, UniProt P48729+Q96SW2); assay: CK1α degradation, Jess assay in MV-4-11 cells; set-up: CK1α levels were determined in MV-4-11 cells using Jess (Protein Simple); host or cells: MV-4-11; dose or concentration left out as unconfirmed; details: MV4-11, % reduction of CK1α compared to DMSO, MV-4-11 cells for 16 hours, normalized to β-actin, read-out: CK1α degradation classification
T1 sequence (P48729 whole entry): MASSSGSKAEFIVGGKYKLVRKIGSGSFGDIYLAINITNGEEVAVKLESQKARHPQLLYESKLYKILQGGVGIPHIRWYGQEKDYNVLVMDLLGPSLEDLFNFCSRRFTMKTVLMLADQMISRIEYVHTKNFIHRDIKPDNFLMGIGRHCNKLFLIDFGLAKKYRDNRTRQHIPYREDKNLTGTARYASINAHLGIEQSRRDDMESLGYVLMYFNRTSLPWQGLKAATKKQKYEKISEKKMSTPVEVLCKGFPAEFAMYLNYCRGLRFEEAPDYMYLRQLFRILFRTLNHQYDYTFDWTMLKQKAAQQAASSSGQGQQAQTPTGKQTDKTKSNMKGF
T1 sequence (Q96SW2 whole entry): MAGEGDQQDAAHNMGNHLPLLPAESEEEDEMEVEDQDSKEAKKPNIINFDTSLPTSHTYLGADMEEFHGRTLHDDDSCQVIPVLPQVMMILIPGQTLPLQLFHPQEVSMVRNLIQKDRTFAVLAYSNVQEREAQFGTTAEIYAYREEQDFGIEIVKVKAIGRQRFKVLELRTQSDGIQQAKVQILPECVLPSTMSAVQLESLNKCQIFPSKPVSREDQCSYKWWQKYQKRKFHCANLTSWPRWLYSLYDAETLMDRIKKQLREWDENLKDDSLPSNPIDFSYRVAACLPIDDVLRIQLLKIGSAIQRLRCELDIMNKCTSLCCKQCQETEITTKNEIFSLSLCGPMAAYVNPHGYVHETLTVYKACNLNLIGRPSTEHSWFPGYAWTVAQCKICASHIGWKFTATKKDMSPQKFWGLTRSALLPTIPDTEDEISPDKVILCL
T1 sequence (Q16531 whole entry partner): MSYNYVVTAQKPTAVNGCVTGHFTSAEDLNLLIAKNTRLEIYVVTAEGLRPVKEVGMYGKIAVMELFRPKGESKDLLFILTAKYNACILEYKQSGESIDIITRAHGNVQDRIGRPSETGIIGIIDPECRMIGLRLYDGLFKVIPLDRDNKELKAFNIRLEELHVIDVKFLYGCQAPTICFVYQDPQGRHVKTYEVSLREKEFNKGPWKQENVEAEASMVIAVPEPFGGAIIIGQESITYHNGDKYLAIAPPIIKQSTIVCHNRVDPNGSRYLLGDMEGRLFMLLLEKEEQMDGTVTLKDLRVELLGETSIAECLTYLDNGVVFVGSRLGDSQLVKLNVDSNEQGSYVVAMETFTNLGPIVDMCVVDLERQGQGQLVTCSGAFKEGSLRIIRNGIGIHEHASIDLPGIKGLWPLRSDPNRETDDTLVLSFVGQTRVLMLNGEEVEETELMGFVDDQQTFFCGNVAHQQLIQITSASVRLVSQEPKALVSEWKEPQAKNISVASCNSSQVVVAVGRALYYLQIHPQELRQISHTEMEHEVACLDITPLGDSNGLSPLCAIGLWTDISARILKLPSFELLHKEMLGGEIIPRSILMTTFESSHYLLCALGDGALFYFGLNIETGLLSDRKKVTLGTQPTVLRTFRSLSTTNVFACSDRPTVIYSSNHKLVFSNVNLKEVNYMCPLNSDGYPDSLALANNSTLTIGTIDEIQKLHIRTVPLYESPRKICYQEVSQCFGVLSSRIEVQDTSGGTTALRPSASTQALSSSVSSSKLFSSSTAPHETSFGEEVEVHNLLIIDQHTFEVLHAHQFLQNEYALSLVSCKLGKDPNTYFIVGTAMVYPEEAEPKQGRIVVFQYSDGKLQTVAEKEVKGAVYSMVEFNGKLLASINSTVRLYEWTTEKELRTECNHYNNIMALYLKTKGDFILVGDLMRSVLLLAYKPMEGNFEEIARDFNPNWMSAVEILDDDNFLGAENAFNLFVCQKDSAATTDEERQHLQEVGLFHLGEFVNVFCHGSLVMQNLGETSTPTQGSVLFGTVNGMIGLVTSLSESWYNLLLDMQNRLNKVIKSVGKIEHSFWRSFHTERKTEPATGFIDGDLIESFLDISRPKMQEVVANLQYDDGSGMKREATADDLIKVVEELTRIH
Procedure: MM.1S and NCCIT cells were obtained from ATCC and grown in RPMI-1640 supplemented with 10% FBS. MV-4-11 cells were obtained from ATCC and grown in IMDM supplemented with 10% FBS. The cells were maintained at 37° C. under 5% CO2.
Compounds of the present disclosure was added to cells (final DMSO concentration of 0.1%) and incubated for 16 hours. CK1α levels were determined in MV-4-11 cells using Jess (Protein Simple). Briefly, whole cell lysates were prepared in lysis buffer (1×RIPA buffer [Thermo, 89900], 2 mM MgCl2 [Sigma, M1028], 0.05% Benzonase [Sigma, E1014], 1× Pierce protease inhibitor tablets EDTA-free [Thermo, A32965]). 6-20 μg of the lysates were analyzed using Jess with antibodies against CK1α (Abcam, ab108296) and β-actin (R&D Systems, MAB8929). Protein levels were normalized to β-actin levels. DC50 values were obtained using four-parameter non-linear regressions using Prism (GraphPad).
The efficacy of CK1α degradation of a part of compounds of the present disclosure was determined by treating MV-4-11 cells at […] (final DMSO concentration of 0.1%) for 16 hours. CK1α levels were determined using Jess and normalized to β-actin levels. The compounds are classified based on amount of CK1α degradation (% reduction of CK1α compared to DMSO) as follows. • A: Degradation is greater than or equal to 75%; • B: Degradation is less than […] & greater than or equal to 50%; • C: Degradation is less than […]; • ND: not determined.

MV-4-11 cells = assay: AML cell viability assay (RealTime-Glo); details: Homo sapiens, MV4-11, IC50 class, MV-4-11 cells, read-out: Cell viability classification
CK1α [2] = molecular target: T1, CK1α; assay: CK1α HiBiT assay in CK1a_HiBiT_Jurkat cells; details: DC50 class, 16 hours, Nano-Glo HiBiT Lytic Detection, read-out: CK1α degradation classification
Procedure: CK1a_HiBiT_Jurkat cells were culture in RPMI 1640 medium (Gibco, 11875093) with 10% FBS under standard tissue culture conditions. Briefly, Compounds of the present disclosure was added to 30,000 cells in a white 96-well plate (9-point dose response, top concentration […], half-log serial dilution, final DMSO concentration 0.5%) and incubated for 16 hours. CK1a level was determined in along with the Nano-Glo HiBiT Lytic Detection system [Promega N3050] with final concentration of 1 x. The luminescence was normalized to that of DMSO-treated samples. DC50 values were obtained using three-parameter non-linear regressions using Prism (GraphPad). The compounds are classified based on DC50 values as follows. • A: DC50 is less than or equal to 1×10^−7; • B: DC50 is greater than 1×10^−7 & less than or equal to 1×10^−6; • C: DC50 is greater than 1×10^−6; • NA: not calculated (no activity detected, <25% viability reduction at 1 uM)

[3] = RealTime-Glo after 44 hrs of treatment (TABLE 1)
[4] = RealTime-Glo after 44 hrs of treatment (TABLE 5)

SMILES	Dmax (CK1α [1]) [%]	pIC50 (MV-4-11 cells; [3])	DC50 (CK1α [2]) [nM]	pIC50 (MV-4-11 cells; [4])
CC#CCN(CCCCN)c1cccc2c1CN(C1CCC(=O)NC1=O)C2=O (stereo not drawn) [Compound 116, 3-(4-((4-aminobutyl)(but-2-yn-1-yl)amino)-1-oxoisoindolin-2-yl)piperidine-2,6-dione]	> 75	> 7.00		
CCCCN(C/C=C/CN)c1cccc2c1CN(C1CCC(=O)NC1=O)C2=O (stereo not drawn) [Compound 66, (E)-3-(4-((4-aminobut-2-en-1-yl)(butyl)amino)-1-oxoisoindolin-2-yl)piperidine-2,6-dione]	50 to 7500	6.00 to 7.00		
CCCCCN(c1cccc2c1CN(C1CCC(=O)NC1=O)C2=O)[C@H]1CC[C@H](N)CC1 (stereo partly drawn) [Compound 88, 3-(4-(((1r,4r)-4-aminocyclohexyl)(pentyl)amino)-1-oxoisoindolin-2-yl)piperidine-2,6-dione, HCl]	> 75	> 7.00		
O=C1CCC(N2Cc3c(cccc3N(CCC3CC3)[C@H]3CC[C@H](N4CC(C(F)(F)F)C4)CC3)C2=O)C(=O)N1 (stereo partly drawn) [Compound 673]			≤ 100	< 6.00
CC1(C)CC(CN(c2cccc3c2CN(C2CCC(=O)NC2=O)C3=O)[C@H]2CC[C@H](NCCC(F)(F)F)CC2)C1 (stereo partly drawn) [Compound 652, 3-(4-{[(3,3-dimethylcyclobutyl)methyl][(1r,4r)-4-[(3,3,3-trifluoropropyl)amino]cyclohexyl]amino}-1-oxo-3H-isoindol-2-yl)piperidine-2,6-dione; bis(trifluoroacetic acid)]			≤ 100	< 6.00
CN(CCC(F)F)[C@H]1CC[C@H](N(CCC2CC2)c2cccc3c2CN(C2CCC(=O)NC2=O)C3=O)CC1 (stereo partly drawn) [Compound 683, 3-(4-((2-cyclopropylethyl)((1r,4r)-4-((3,3-difluoropropyl)(methyl)amino)cyclohexyl)amino)-1-oxoisoindolin-2-yl)piperidine-2,6-dione tris(2,2,2-trifluoroacetate)]			≤ 100	> 7.00
O=C1CCC(N2Cc3c(cccc3N(CCC3CC3)[C@H]3CC[C@@H](NCCCC(F)(F)F)CC3)C2=O)C(=O)N1 (stereo partly drawn) [Compound 642A]			≤ 100	< 6.00
O=C1CCC(N2Cc3c(cccc3N(CCC3CC3)[C@H]3CC[C@H](NCc4ccc(C(F)(F)F)cn4)CC3)C2=O)C(=O)N1 (stereo partly drawn) [Compound 664, 3-{4-[(2-cyclopropylethyl)[(1r,4r)-4-({[5-(trifluoromethyl)pyridin-2-yl]methyl}amino)cyclohexyl]amino]-1-oxo-3H-isoindol-2-yl}piperidine-2,6-dione formic acid]			≤ 100	6.00 to 7.00
O=C1CCC(N2Cc3c(cccc3N(CCC3CC3)[C@H]3CC[C@H](NCCC(F)F)CC3)C2=O)C(=O)N1 (stereo partly drawn) [Compound 643, 3-{4-[(2-cyclopropylethyl)[(1r,4r)-4-[(3,3-difluoropropyl)amino]cyclohexyl]amino]-1-oxo-3H-isoindol-2-yl}piperidine-2,6-dione; trifluoroacetic acid]			≤ 100	> 7.00
NC(=O)C12CC(N(CCC3CC3)c3cccc4c3CN(C3CCC(=O)NC3=O)C4=O)(C1)C2 (stereo not drawn) [Compound 659, 3-[(2-cyclopropylethyl)[2-(2,6-dioxopiperidin-3-yl)-1-oxo-3H-isoindol-4-yl]amino]bicyclo[1.1.1]pentane-1-carboxamide]			≤ 100	6.00 to 7.00
O=C1CCC(N2Cc3c(cccc3N(CC3CC(F)(F)C3)[C@H]3CC[C@H](NCCC(F)(F)F)CC3)C2=O)C(=O)N1 (stereo partly drawn) [Compound 650, 3-(4-{[(3,3-difluorocyclobutyl)methyl][(1r,4r)-4-[(3,3,3-trifluoropropyl)amino]cyclohexyl]amino}-1-oxo-3H-isoindol-2-yl)piperidine-2,6-dione]			≤ 100	6.00 to 7.00
O=C1CCC(N2Cc3c(cccc3N(CC3CC(F)(F)C3)[C@H]3CC[C@H](NCC4(C(F)(F)F)CC4)CC3)C2=O)C(=O)N1 (stereo partly drawn) [Compound 655, 3-(4-{[(3,3-difluorocyclobutyl)methyl][(1r,4r)-4-({[1-(trifluoromethyl)cyclopropyl]methyl}amino)cyclohexyl]amino}-1-oxo-3H-isoindol-2-yl)piperidine-2,6-dione]			100 to 1000	< 6.00
CC1(C)CC(CN(c2cccc3c2CN(C2CCC(=O)NC2=O)C3=O)[C@H]2CC[C@H](NCCC(F)(F)F)CC2)C1 (single isomer, unassigned) [Compound 652A, 3-(4-{[(3,3-dimethylcyclobutyl)methyl][(1s,4s)-4-[(3,3,3-trifluoropropyl)amino]cyclohexyl]amino}-1-oxo-3H-isoindol-2-yl)piperidine-2,6-dione; bis(trifluoroacetic acid)]			> 1000	< 6.00
O=C1CCC(N2Cc3c(cccc3N(CC3CC4(CCC4)C3)[C@H]3CC[C@H](NCC4(C(F)(F)F)CC4)CC3)C2=O)C(=O)N1 (stereo partly drawn) [Compound 656, 3-(1-oxo-4-{[(1r,4r)-4-({[1-(trifluoromethyl)cyclopropyl]methyl}amino)cyclohexyl]({spiro[3.3]heptan-2-ylmethyl})amino}-3H-isoindol-2-yl)piperidine-2,6-dione; trifluoroacetic acid]			100 to 1000	6.00 to 7.00
O=C1CCC(N2Cc3c(cccc3N(CCC3CC3)[C@H]3CC[C@H](N[C@H]4CC[C@@H]4C(F)(F)F)CC3)C2=O)C(=O)N1 (stereo partly drawn) [Compound 675, 3-{4-[(2-cyclopropylethyl)[(1r,4r)-4-{[(1S,2S)-2-(trifluoromethyl)cyclobutyl]amino}cyclohexyl]amino]-1-oxo-3H-isoindol-2-yl}piperidine-2,6-dione; bis(trifluoroacetic acid)]			≤ 100	6.00 to 7.00
O=C1CCC(N2Cc3c(cccc3N(CCC3CC3)[C@H]3CC[C@H](N4CCCC4)CC3)C2=O)C(=O)N1 (stereo partly drawn) [Compound 669]			≤ 100	6.00 to 7.00
O=C1CCC(N2Cc3c(cccc3N(CCC3CC3)[C@H]3CC[C@H](N4CCC(C(F)(F)F)C4)CC3)C2=O)C(=O)N1 (stereo partly drawn) [Compound 672, 3-{4-[(2-cyclopropylethyl)[(1r,4r)-4-[3-(trifluoromethyl)pyrrolidin-1-yl]cyclohexyl]amino]-1-oxo-3H-isoindol-2-yl}piperidine-2,6-dione; trifluoroacetic acid]			≤ 100	6.00 to 7.00
O=C1CCC(N2Cc3c(cccc3N(CCC3CC3)[C@H]3CC[C@H](NCC4CCCO4)CC3)C2=O)C(=O)N1 (stereo partly drawn) [Compound 666, 3-{4-[(2-cyclopropylethyl)[(1r,4r)-4-[(oxolan-2-ylmethyl)amino]cyclohexyl]amino]-1-oxo-3H-isoindol-2-yl}piperidine-2,6-dione]			≤ 100	> 7.00
O=C1CCC(N2Cc3c(cccc3N(CCC3CC3)[C@H]3CC[C@H](NC45CC(C(F)(F)F)(C4)C5)CC3)C2=O)C(=O)N1 (stereo partly drawn) [Compound 646, 3-{4-[(2-cyclopropylethyl)[(1r,4r)-4-{[3-(trifluoromethyl)bicyclo[1.1.1]pentan-1-yl]amino}cyclohexyl]amino]-1-oxo-3H-isoindol-2-yl}piperidine-2,6-dione; trifluoroacetic acid]			≤ 100	6.00 to 7.00
CN(CCCC(F)(F)F)[C@H]1CC[C@H](N(CCC2CC2)c2cccc3c2CN(C2CCC(=O)NC2=O)C3=O)CC1 (stereo partly drawn) [Compound 681, 3-{4-[(2-cyclopropylethyl)[(1r,4r)-4-[methyl(4,4,4-trifluorobutyl)amino]cyclohexyl]amino]-1-oxo-3H-isoindol-2-yl}piperidine-2,6-dione]			≤ 100	> 7.00
O=C1CCC(N2Cc3c(cccc3N(CCC3CC3)[C@H]3CC[C@H](N4CCC(F)C4)CC3)C2=O)C(=O)N1 (stereo partly drawn) [Compound 671, 3-{4-[(2-cyclopropylethyl)[(1r,4r)-4-(3-fluoropyrrolidin-1-yl)cyclohexyl]amino]-1-oxo-3H-isoindol-2-yl}piperidine-2,6-dione]			≤ 100	6.00 to 7.00
